According to PMC10683025, “Discovery of a Hydroxylamine-Based Brain-Penetrant EGFR Inhibitor for Metastatic Non-Small-Cell Lung Cancer” (Journal of Medicinal Chemistry, 2023):
Values after ≈ are worked out from the molar mass of the structure shown.

How the values were obtained:
[1] = Lipophilicity, shake-flask; assay type: physicochemical; conditions: 1-octanol/PBS; 1-octanol and PBS (pH 7.4); read-out: logD7.4
Protocol: Compound lipophilicity was determined by Pharmaron, Inc. using the shake-flask method with 1-octanol and PBS (pH 7.4). Each compound was assessed in duplicate (n = 2) at 1 μM in a 96-well plate shaken at 25 °C and 2000 rpm for 2 h. Samples were analyzed by liquid chromatography and tandem mass spectrometry (LC-MS/MS).

Solubility assay = assay type: physicochemical; conditions: buffer, pH 7.4, aqueous buffer; read-out: Aq. Sol.
Protocol: Solubility was determined by Pharmaron, Inc. and each compound was assessed in duplicate (n = 2) by adding 15 μL of compound stock solution (10 mM in DMSO) into a 96-well plate along with 485 μL of buffer followed by shaking at 25 °C, 1100 rpm for 2 h. Wells were filtered, and samples (5 μL) were taken followed by dilution with an equal volume of DMSO (5 μL) and 490 μL of aqueous solution. Samples were analyzed by LC-MS/MS.

[2] = Metabolic stability in liver microsomes; assay type: in vitro ADME, human; conditions: human LM
Protocol: (§3) Microsome stability was assessed in duplicate (n = 2) in the presence and absence of nicotinamide adenine dinucleotide phosphate (NADPH) with liver microsomes (0.5 mg/mL) from human (BD Gentest) and Sprague-Dawley rats (BD Gentest). Compounds were incubated in liver microsomes at 1 μM and samples (30 μL) were taken at 0.5, 15, 30, 45, and 60 min time points for analysis by LC-MS/MS. Hepatocyte stability was assessed in duplicate (n = 2) at a working cell density of 0.5 × 10^6 cells/mL with hepatocytes from human (BiolVT), Sprague-Dawley rat (BiolVT), cynomolgus monkey (RILD) or beagle dog (BiolVT). […] The in vitro half-life and intrinsic clearances were determined as previously described.[76]
(§4) In vitro half-life (in vitro t1/2) was determined from the slope value in [drawing 1] where k was determined by linear regression of the natural logarithm of the remaining percentage of the parent drug vs the incubation time curve.

[3] = Metabolic stability in liver microsomes; assay type: in vitro ADME, Sprague-Dawley rat; conditions: rat LM
Protocol: as §3, §4

[4] = Metabolic stability in hepatocytes; assay type: in vitro ADME, human; conditions: for Remaining Percentages: human hepatocytes
Protocol: as §3, §4

[5] = Metabolic stability in hepatocytes; assay type: in vitro ADME, Sprague-Dawley rat; conditions: rat hepatocytes
Protocol: as §3, §4

Plasma stability [6] = assay type: in vitro ADME, human; conditions: human plasma
Protocol: (§1) Assessment of compounds to determine stability in incubations containing plasma of human (Pharmaron) and Sprague-Dawley rat (IPHASE) was performed by Pharmaron, Inc. using the compound […] approach. Compounds were assessed in duplicate (n = 2) and incubated in plasma at 5 μM and samples (50 μL) were taken at 0, 15, 30, 60, and 120 min time points for analysis by LC-MS/MS. Peak area ratios were determined from the extracted ion chromatogram and the percent compound remaining at each time point was calculated by the following equation: [drawing 2] where peak area ratiot min is the peak area ratio of control and test compound at t min and peak area ratio0 min is the peak area ratio of control and test compound at zero time point.

Plasma stability [7] = assay type: in vitro ADME, Sprague-Dawley rat; conditions: rat plasma
Protocol: as §1

[8] = Plasma protein binding by equilibrium dialysis; assay type: in vitro ADME
Protocol: (§2) Plasma protein binding and brain tissue binding were determined by Pharmaron, Inc. using the equilibrium dialysis method. […] Following incubation, the samples were analyzed by LC-MS/MS and the concentrations of the compounds were determined in the buffer and plasma solution chambers.

[9] = Plasma protein binding by equilibrium dialysis; assay type: in vitro ADME, mouse
Protocol: as §2

[10] = Brain tissue binding by equilibrium dialysis; assay type: in vitro ADME; conditions: rat
Protocol: as §2

[11] = parameters: method as in PMID 33028591; conditions: single oral dose of 10 mg/kg in Han Wistar rats ref 18; cited from earlier work
P-gp and BCRP = test system: P-gp and BCRP; parameters: method as in ref 17−20; conditions: ref 17−20; cited from earlier work
[12] = cited from earlier work
[13] = Sprague-Dawley, rat, rat plasma

Compound: COc1cc2ncnc(Nc3ccc(F)c(Cl)c3)c2cc1OCCCN1CCOCC1 [Gefitinib (1), Gefitinib, reference compound]
- logD at 2 h, 1 µM [1]: 3.7
- solubility kinetic at 2 h (Solubility assay): 4 µM (≈ 1.79 µg/mL)
- Remaining Percentage ([2]; +Cofactors, 15 min): 39.75%
- Remaining Percentage ([2]; +Cofactors, 30 min): 19.60%
- Remaining Percentage ([2]; +Cofactors, 45 min): 12.23%
- Remaining Percentage ([2]; +Cofactors, 60 min): 8.14%
- Remaining Percentage ([2]; -Cofactors, 60 min): 100.00%
- Remaining Percentage ([3]; +Cofactors, 15 min): 63.13%
- Remaining Percentage ([3]; +Cofactors, 30 min): 37.48%
- Remaining Percentage ([3]; +Cofactors, 45 min): 25.25%
- Remaining Percentage ([3]; +Cofactors, 60 min): 19.26%
- Remaining Percentage ([3]; -Cofactors, 60 min): 115.38%
- Remaining Percentages ([4]; 15 min): 97.55%
- Remaining Percentages ([4]; 30 min): 94.76%
- Remaining Percentages ([4]; 60 min): 73.38%
- Remaining Percentages ([4]; 90 min): 50.47%
- Remaining Percentages ([4]; 120 min): 39.53%
- half-life at 2 h, 1 µM ([4]; human, hepatocytes, read-out: HEP t1/2): 1.39 h
- Remaining Percentages ([5]; 15 min): 66.86%
- Remaining Percentages ([5]; 30 min): 59.92%
- Remaining Percentages ([5]; 60 min): 39.44%
- Remaining Percentages ([5]; 90 min): 21.69%
- Remaining Percentages ([5]; 120 min): 13.94%
- Remaining Percentages (Plasma stability [6]; 15 min): 103.40%
- Remaining Percentages (Plasma stability [6]; 30 min): 103.92%
- Remaining Percentages (Plasma stability [6]; 60 min): 101.33%
- Remaining Percentages (Plasma stability [6]; 120 min): 104.45%
- t1/2 (Plasma stability [6]; ∞ = no degradation): ∞
- Remaining Percentages (Plasma stability [7]; 15 min): 100.11%
- Remaining Percentages (Plasma stability [7]; 30 min): 98.28%
- Remaining Percentages (Plasma stability [7]; 60 min): 95.04%
- Remaining Percentages (Plasma stability [7]; 120 min): 93.66%
- t1/2 (Plasma stability [7]; ∞ = no degradation): ∞
- fraction unbound at 6 h, 5 μM ([8]; Sprague-Dawley, rat, plasma, 5 μM, read-out: fu,plasma% / %Unbound): 0.0249
- recovery at 6 h, 5 μM [8, 13]: 105%
- remaining at 6 h, 5 μM [8, 13]: 105%
- fraction unbound at 6 h, 5 μM ([8]; Sprague-Dawley, rat, rat plasma, read-out: %Bound (converted)): 0.0249
- recovery at 6 h, 5 μM ([8]; human, human plasma): 106%
- remaining at 6 h, 5 μM ([8]; human, human plasma): 98.8%
- fraction unbound at 6 h, 5 μM ([8]; human, human plasma, read-out: fu,plasma% / %Unbound (converted)): 0.0766
- fraction unbound at 6 h, 5 μM ([8]; plasma, human, 5 μM, read-out: fu,plasma% / %Unbound (converted)): 0.0766
- recovery at 6 h, 5 μM ([9]; CD-1, mouse, mouse plasma): 99.4%
- remaining at 6 h, 5 μM ([9]; CD-1, mouse, mouse plasma): 98%
- fraction unbound at 6 h, 5 μM ([9]; CD-1, mouse, mouse plasma, read-out: %Bound (converted)): 0.0781
- fraction unbound at 6 h, 5 μM ([9]; CD-1, plasma, mouse, 5 μM, read-out: fu,plasma% / %Unbound): 0.0781
- recovery at 6 h, 5 μM ([10]; Sprague-Dawley (SD), rat brain homogenate): 99.7%
- fraction unbound at 6 h, 5 μM ([10]; Sprague-Dawley, brain homogenate, read-out: fu,brain% / %Unboundbrain): 0.006
- remaining at 6 h, 5 μM ([10]; Sprague-Dawley, rat brain homogenate): 105%
- fraction unbound at 6 h, 5 μM ([10]; Sprague-Dawley, rat brain homogenate, read-out: %Boundbrain (converted)): 0.006
- Kp,uu (AUC0−16h) [11]: 0.0092
- efflux status against common efflux transporters (P-gp and BCRP): P-gp and BCRP Substrate

Compound: hydroxylamine
- pKa [12]: 5.9
